Measurements taken from patent US6929685B2, “Alkylamine derivatives as antifouling agents” (Bayer Atiengesellschaft, priority 2001, dated 2005).

Tests used:
hard fouling = assay: Raft panel static immersion test of antifouling paints: hard fouling; set-up: key: G: Not present; Some light slime; F: Overall covered; conditions: Dutch harbor, sea water
Excerpt: (§1) The prepared paints have been evaluated on can stability, adhesion and film defects. The antifouling performance has been tested by application of the paints on raft panels. At first the steel panels had been protected with a standard anticorrosive system for marine environments (300 μm in dft). The to be tested antifouling paint had been applied in 2 layers with a total dry film thickness between 200 and 300 μm. Finally the panels were subjected to a static immersion test on rafts at sea harbors in Holland. The paints were inspected for the presence of fouling (% of area covered with fouling organisms) and of film defects every two months. The tested paint formulations are represented in Table 1.
(§2) Further explanations to Table 1: • 1. Model coatings of type 1 (MC-1A/B/C) are for the evaluation of the algicidal properties of the claimed structures at three different representative weight-% next to 35% cuprous oxide. Good performing references are model coating MC-2 and MC-3 [35% cuprous oxide+3% Seanine (MC-2) or 35% cuprous oxide+3% Irgarol (MC-3)]. Base level references are “cuprous oxide only” formulations [cuprous oxide only (35% (MC4) and 50% level (MC-5)]. • 2. Model coatings of type 6 and 7 are for the evaluation of the activity of the claimed structures against “hard fouling” in combination with two different types of algicides: claimed structure (1/2/4%; MC-6-A/B/C)+3% Seanine or claimed structure (1/2/4%; MC-7-A/B/C)+3% Irgarol). Base level references are “algicide only” formulations with 3% Seanine (MC-8) or 3% Irgarol (MC-9).
(§3) 3. Model coatings of type 10 (MC-10A/B) evaluate the total spectrum of biocidal activity by using the claimed structure as only biocide at 2 levels (4 and 8 w %). Good performing references are “cuprous oxide only” formulations [cuprous oxide 35% (MC-4) and 50% (MC-5)]. As blank serves model coating 11 (MC-1 1) containing no biocide at all.
(§4) The claimed structures were tested at several levels of dosage with and without an algicide as co-biocide. The following formulations were used for comparison: formulations with cuprous oxide, formulations with cuprous oxide and commercial co-biocides, a blank and two formulations that only contained the co-biocide and finally a commercial tributyltin-releasing self polishing system.
(§5) An even better protection can be obtained by combining claimed structures with co-biocides like the algicides that are commonly used for antifoulings.

fouling organisms = assay: Raft panel static immersion test of antifouling paints: overall; set-up: key: good (G); satisfactory (S); failure (F); conditions: Dutch harbor, sea water
Excerpt: as §1, §2, §3, §4, §5

algae = assay: Raft panel static immersion test of antifouling paints: algae; set-up: key: G: Not present; Some light slime; F: Overall covered; conditions: Dutch harbor, sea water
Excerpt: as §1, §2, §3, §4, §5

[1] = test system: cyprid larvae of the barnacle Balanus amphitrite; assay: Settlement assay, cyprid larvae of the barnacle; type: in vivo; conditions: Balanus amphitrite cyprids, seawater, 27° C., Spearman-Karber
Experimental: The rate of settlement of laboratory reared cyprid larvae of the barnacle Balanus amphitrite was determined for testing the activity of candidate antifouling compounds. Settlement Assay Tests are carried out in four replicates in sterile polystyrene multi well plates. Between 25 and 40 cyprid larvae are injected in the dishes containing either 2 ml of test solution (see below), solvent control or a positive control (dichloro-n-octyl-isothiazolinone). Dishes are incubated for 24 h at a temperature of 27° C. ±2. After incubation the cyprids are screened for signs of toxicity. The test is terminated by addition of a drop of 20% formaldehyde and the numbers of settled and non-settled larvae are counted. Settlement is evaluated as follows: 1) non settled: not attached free-swimming cyprids, 2) settled cyprids: attached, but not metamorphosed cyprids, 3) barnacles: attached juvenile barnacles. Categories 2 and 3 are considered to be settled. Percentage settlement in test solution is compared with controls. Estimates of the median effect concentration (EC50) after […] are calculated using the Spearman-Karber method. All seawater used is of natural origin and filtered unto 0.2 μm. Stock solutions of test compounds are prepared by dissolving an amount of test substance in a suitable solvent and subsequent addition of seawater. […]

slime = assay: Raft panel static immersion test of antifouling paints: slime; set-up: key: G: Not present; Some light slime; F: Overall covered; conditions: Dutch harbor, sea water
Excerpt: as §1, §2, §3, §4, §5

[2] = model coating 1A: 35% Cu2O + 1% of compound
[3] = model coating 1B: 35% Cu2O + 2% of compound
[4] = model coating 1C: 35% Cu2O + 3% of compound
[5] = model coating 6C: 4% of compound + 3% Seanine
[6] = model coating 10B: 8% of compound as only biocide
[7] = model coating 6A: 1% of compound + 3% Seanine
[8] = model coating 6B: 2% of compound + 3% Seanine
[9] = model coating 7A: 1% of compound + 3% Irgarol
[10] = model coating 7B: 2% of compound + 3% Irgarol
[11] = model coating 7C: 4% of compound + 3% Irgarol
[12] = model coating 10A: 4% of compound as only biocide

SMILES	Performance (1 yr immersed) Hard fouling (hard fouling; [2])	Performance (1 yr immersed) Hard fouling (hard fouling; [3])	Performance (1 yr immersed) Hard fouling (hard fouling; [4])	Performance (1 yr immersed) Hard fouling (hard fouling; [5])	Performance (1 yr immersed) Hard fouling (hard fouling; [6])	Performance (1 yr immersed) Overall (fouling organisms; [2])	Performance (1 yr immersed) Overall (fouling organisms; [3])	Performance (1 yr immersed) Overall (fouling organisms; [4])	Performance (1 yr immersed) Overall (fouling organisms; [7])	Performance (1 yr immersed) Overall (fouling organisms; [8])	Performance (1 yr immersed) Overall (fouling organisms; [5])	Performance (1 yr immersed) Overall (fouling organisms; [9])	Performance (1 yr immersed) Overall (fouling organisms; [10])	Performance (1 yr immersed) Overall (fouling organisms; [11])	Performance (1 yr immersed) Overall (fouling organisms; [12])	Performance (1 yr immersed) Overall (fouling organisms; [6])	Performance (1 yr immersed) Algae (algae; [3])	Performance (1 yr immersed) Algae (algae; [4])	Performance (1 yr immersed) Algae (algae; [7])	Performance (1 yr immersed) Algae (algae; [8])	other results
C=CCCCCCCCCCNC=O [Compound 8, N-formyl-1-aminoundec-10-ene]	G	G	G	G	G	S	S	G	F	S	G	F	S	S	F	S	G	G	G	G	Performance (1 yr immersed) Algae (algae; [5]): G; Performance (1 yr immersed) Algae (algae; [9]): G; Performance (1 yr immersed) Algae (algae; [10]): G; Performance (1 yr immersed) Algae (algae; [11]): G; EC50 for settlement inhibition in ppm [1]: 0.60 ppm; Performance (1 yr immersed) Slime (slime; [2]): S; Performance (1 yr immersed) Slime (slime; [3]): S; Performance (1 yr immersed) Slime (slime; [4]): G; Performance (1 yr immersed) Slime (slime; [7]): S; Performance (1 yr immersed) Slime (slime; [8]): S; Performance (1 yr immersed) Slime (slime; [5]): G; Performance (1 yr immersed) Slime (slime; [9]): S; Performance (1 yr immersed) Slime (slime; [10]): S; Performance (1 yr immersed) Slime (slime; [11]): S; Performance (1 yr immersed) Slime (slime; [12]): F; Performance (1 yr immersed) Slime (slime; [6]): S
CCCCCCCCCCCNC=O [Compound 9, N-formyl-1-aminoundecane]	G	G	G	G	G	S	S	G	F	S	G	F	S	S	F	S	G	G	G	G	Performance (1 yr immersed) Algae (algae; [5]): G; Performance (1 yr immersed) Algae (algae; [9]): G; Performance (1 yr immersed) Algae (algae; [10]): G; Performance (1 yr immersed) Algae (algae; [11]): G; Performance (1 yr immersed) Slime (slime; [2]): S; Performance (1 yr immersed) Slime (slime; [3]): S; Performance (1 yr immersed) Slime (slime; [4]): G; Performance (1 yr immersed) Slime (slime; [7]): S; Performance (1 yr immersed) Slime (slime; [8]): S; Performance (1 yr immersed) Slime (slime; [5]): G; Performance (1 yr immersed) Slime (slime; [9]): S; Performance (1 yr immersed) Slime (slime; [10]): S; Performance (1 yr immersed) Slime (slime; [11]): S; Performance (1 yr immersed) Slime (slime; [12]): F; Performance (1 yr immersed) Slime (slime; [6]): S
O=CNCCCCCCCCCC(Br)CBr (stereo not shown) [Compound 3, N-formyl-10,11-dibromoundecylamine]	G	G	G	G	G	S	S	G	F	S	G	F	S	S	F	S	G	G	G	G	Performance (1 yr immersed) Algae (algae; [5]): G; Performance (1 yr immersed) Algae (algae; [9]): G; Performance (1 yr immersed) Algae (algae; [10]): G; Performance (1 yr immersed) Algae (algae; [11]): G; Performance (1 yr immersed) Slime (slime; [2]): S; Performance (1 yr immersed) Slime (slime; [3]): S; Performance (1 yr immersed) Slime (slime; [4]): G; Performance (1 yr immersed) Slime (slime; [7]): S; Performance (1 yr immersed) Slime (slime; [8]): S; Performance (1 yr immersed) Slime (slime; [5]): G; Performance (1 yr immersed) Slime (slime; [9]): S; Performance (1 yr immersed) Slime (slime; [10]): S; Performance (1 yr immersed) Slime (slime; [11]): S; Performance (1 yr immersed) Slime (slime; [12]): F; Performance (1 yr immersed) Slime (slime; [6]): S
